Measured values: US11439639B2, “Pyrazine-containing compound” (CalciMedica, Inc., priority 2015, dated 2022)
pIC50: −log10 of the molar value.

What was measured:
Mouse PACs [1] = assay: Rate of store-operated Calcium entry in mouse PACs, dose dependence; type: cell-based; set-up: block of reuptake: dose or concentration left out as unconfirmed; settings: for activity at 0.7 µM: Mus musculus, 700 nM of inhibitor, read-out: rate of store-operated Calcium entry, % of control levels
Procedure: Mouse PACs were treated with CRAC inhibitors Compound I (FIG. 5A) or GSK-7975A (FIG. 5B) and monitored for their rate of Calcium uptake. […] Compound I blocks 100% of reuptake […].

[2] = system: Mouse acute pancreatitis models; assay: Mouse acute pancreatitis models (Caerulein, TLCS, FAEE), pancreas histopathology; type: in vivo; settings: TLCS or FAEE model, doses giving tissue levels 10× or 40× the IC50, more pronounced at 40×
Text: Mouse acute pancreatitis models were used to evaluate the effect of a CRAC inhibitor on pancreas histopathological progression. Caerulein is used to hyper-stimulate CCK receptors in the normal Calcium signaling pathway in the mouse pancreas. TLCS is used to induce acute pancreatitis through simulation of an excess of bile acid, as would be experienced in a gallstone induced acute pancreatitis. Fatty acid ethyl esters (FAEE) are used to simulate alcohol-induced acute pancreatitis. Mice were treated with the acute pancreatitis agent (Caerulin, FIG. 2A, TLCS, FIG. 2B or FAEE, FIG. 2C) alone or with the CRAC inhibitor GSK-7975A at either 10× or 40× the IC50 of the CRAC inhibitor.

Mouse Acinar cells = assay: TLCS-induced amylase release in mouse acinar cells; type: cell-based; settings: TLCS-treated mouse acinar cells, compared with EGTA
Procedure: Amylase release from PACs has an ER calcium-dependent and a CRAC/cytosolic calcium-dependent component. The calcium dependent component is blocked by introduction of the divalent cation chelating agent EGTA. Mouse Acinar cells were treated with TLCS and either vehicle, EGTA, or a CRAC inhibitor such as Compound I, GSK-7975A or Compound II and monitored for Amylase release. It is observed that CRAC inhibitors mimicked EGTA in their effect on Amylase release.

Human PACs = assay: TLCS-induced necrosis in human pancreatic acinar cells (propidium iodide); type: cell-based; settings: TLCS plus 10 μM GSK-7975A, TLCS alone about 45%, no TLCS about 23%
Procedure: (§1) Human PACs were extracted and incubated with either a carrier (control) or with natural bile acid TLCS in the absence or presence of GSK-7975A. Cells were contacted with propidium iodide to assay for cell necrosis. TLCS treatment to individual cells in vitro mimics the effect of a gall stone or other blockage in pancreatic secretion in vivo.

Orai1/STIM1 channels = Orai1/STIM1 channels (Homo sapiens, UniProt Q96D31); assay: CRAC channel inhibition, Orai1/STIM1; type: cell-based; settings: for pIC50: Orai1/STIM1 channels
Procedure: (§2) Compound I and GSK-7975A were assayed for their inhibitory effect on CRAC channels. Channels comprising Orai1/STIM1 and Orai2/STIM1 were assayed.

Orai2/STIM1 channels = Orai2/STIM1 channels (Homo sapiens, UniProt Q96SN7); assay: CRAC channel inhibition, Orai2/STIM1; type: cell-based
Procedure: as §2

Mouse PACs [3] = assay: CCK-induced Ca2+ entry in mouse PACs; type: cell-based; settings: CCK 10 nM, then 1.8 mM Calcium; pretreatment with inhibitor
Procedure: Mouse PACs were monitored for their Calcium uptake upon treatment with CCK at 10 nM. Cells were treated with CCK, and then provided with 1.8 mM Calcium and Calcium reuptake was monitored. […] Compound I pretreatment reduced Calcium re-uptake to near 0% of the control. GSK-7975A reduced calcium reuptake to about 30% of the control.

[4] = system: Mouse Pancreatic Acinar Cells (PACs); assay: TLCS-induced necrosis in mouse pancreatic acinar cells (propidium iodide uptake); type: cell-based
Procedure: as §1, with “Mouse Pancreatic Acinar Cells (PACs) were extracted” for “Human PACs were extracted”, “acid TLCS (taurolithocholic acid 3-sulfate) in the” for “acid TLCS in the”
Mouse PACs were treated with either DMSO, DMSO plus 500 μM TLCS, or DMSO plus 500 μM TLCS plus 1 μM of the CRAC inhibitor Compound I. Cell necrosis was measured as % PI uptake. The CRAC inhibitor Compound I inhibits TLCS-induced necrosis in mouse PACs.

Candid-1 JUNV = type: cell-based, Junin virus; settings: VeroE6 cells; 1, 10, 25, 50 μM Compound I
Mouse PACs [5] = assay: TLCS-induced Ca2+ entry in mouse PACs (cytosolic calcium, F345/F380); type: cell-based; settings: 500 μM TLCS; Compound I at 1 or 3 μM
Procedure: Mouse PACs were treated with 500 μM TLCS and either 0, 1μM or 3 μM of the CRAC inhibitor Compound I. Cytosolic Calcium levels (measured as F345/ F380 ratios) were measured for each treatment. TLCS releases Ca^2+ from intracellular stores (not shown), initiating SOCE. […] The results are depicted in FIG. 11.

[6] = Compound levels in the pancreas after i.p. injection; type: in vivo, mouse; settings: as a function of dose
[7] = system: caerulein-induced pathology in the pancreas; assay: Therapeutic/prophylactic mouse caerulein model, histopathology scores; type: in vivo
Procedure: Seven hourly i.p. injections of caerulein were given to induce pancreatitis, with animals sacrificed 8 hr after the 1st injection. Compound I was administered i.p. either 30 min before the 1st caerulein injection (prophylactic), or after the 3rd injection (therapeutic). CsA was administered p.o. on the same schedule as Compound I. The results are depicted in FIG. 10. Histopathology scores were measured in light of observation of Acinar cell degeneration, coagulation necrosis, and inflammation and edema measurements. Compound I produced a significant 35% reduction in caerulein-induced pathology in the pancreas when administered after the 3rd caerulein injection, consistent with efficacy in a therapeutic mode.

Mouse PACs [8] = assay: CPA-induced store-operated Ca2+ entry (calcium reuptake) in mouse PACs; type: cell-based; settings: CPA-treated mouse PACs, excess Calcium given 15 minutes after release
Procedure: Mouse PACs were isolated and assayed for the effect of CRAC inhibitors on calcium re-uptake into the ER. Cells were treated with cyclopiazonic acid (CPA) alone (FIG. 4A) or in combination with the CRAC inhibitor Compound I (FIG. 4B) to activate CRAC channels to release Ca^2+. At 15 minutes following Calcium release, cells were provided with an excess of Calcium and monitored for Calcium uptake into the ER.

murine T cells = assay: Store-operated Ca2+ entry in murine T cells under Th1-, Th2-, Th17-polarizing conditions; type: cell-based; settings: 1 μM Compound I, Th17 versus naive
Procedure: Naive and stimulated murine T cells cultured under Th1-, Th2-, and Th17-polarizing conditions are treated with either DMSO, DMSO plus 500 μM TLCS, or DMSO plus 500 μM TLCS plus 1 μM of the CRAC inhibitor Compound I. Store-operated Ca^2+ entry (SOCE) is quantified in each treatment.

[9] = system: caerulein-induced pathology in the mouse pancreas; assay: Mouse caerulein model of acute pancreatitis, prophylactic i.p. dosing, pancreas pathology; type: in vivo; settings: C57B6 mice
Procedure: Mice were treated with a CRAC inhibitor or a vehicle prophylactically, and then challenged with CCK to trigger acute pancreatitis.

[10] = system: T cells in bulk human PBMCs; assay: Cytokine release from anti-CD3/anti-CD28 stimulated human PBMCs (Luminex); type: cell-based; settings: plate-bound anti-CD3/anti-CD28, 10% serum, 48 hrs
Procedure: Compound I was tested for its inhibitory effect on a number of cytokines. Cytokines INF-gamma, IL-4, and IL-4 receptors of which are expressed on Acinar cells, cytokines IL-lbeta, IL-6, IL-10 and TNF-alpha, expressed in Acinar cells, and IL-2 and IL-7, cytokines important in T-cell function, were tested for an inhibitory effect of the CRAC inhibitor Compound I. T cells in bulk human PBMCs were stimulated with plate-bound anti-CD3/anti-CD28 in buffer +10% serum for 48 hrs. Released cytokines were measured by Luminex at Millipore.

[11] = system: caerulein-induced acute pancreatitis; assay: Serum amylase and serum lipase in mouse caerulein model of acute pancreatitis; type: in vivo; settings: doses up to 20 mg/kg
Procedure: Mice were either untreated (Normal), treated with CCK only (vehicle), or treated with CCK in combination with CsA or a CRAC inhibitor at the indicated dose. Serum amylase activity (FIG. 9A) and Serum Lipase activity (FIG. 9B) (IU/L) were measured.

Th17 cells = assay: Cytokine production by Th1, Th2 and Th17 cells; type: cell-based, murine; settings: compared with IFN-γ and IL-4 production by Th1 and Th2 cells

Sequence of Orai1/STIM1 channels (Q96D31 whole entry): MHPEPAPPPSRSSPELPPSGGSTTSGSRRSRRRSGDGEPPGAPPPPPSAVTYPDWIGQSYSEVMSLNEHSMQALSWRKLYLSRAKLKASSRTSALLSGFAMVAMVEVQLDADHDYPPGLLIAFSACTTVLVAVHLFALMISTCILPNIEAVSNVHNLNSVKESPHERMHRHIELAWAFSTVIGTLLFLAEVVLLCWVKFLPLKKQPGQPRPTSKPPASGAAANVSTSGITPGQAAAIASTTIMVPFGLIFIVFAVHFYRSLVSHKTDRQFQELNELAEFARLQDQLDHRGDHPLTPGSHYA
Sequence of Orai1/STIM1 channels (Q13586 23-685 partner): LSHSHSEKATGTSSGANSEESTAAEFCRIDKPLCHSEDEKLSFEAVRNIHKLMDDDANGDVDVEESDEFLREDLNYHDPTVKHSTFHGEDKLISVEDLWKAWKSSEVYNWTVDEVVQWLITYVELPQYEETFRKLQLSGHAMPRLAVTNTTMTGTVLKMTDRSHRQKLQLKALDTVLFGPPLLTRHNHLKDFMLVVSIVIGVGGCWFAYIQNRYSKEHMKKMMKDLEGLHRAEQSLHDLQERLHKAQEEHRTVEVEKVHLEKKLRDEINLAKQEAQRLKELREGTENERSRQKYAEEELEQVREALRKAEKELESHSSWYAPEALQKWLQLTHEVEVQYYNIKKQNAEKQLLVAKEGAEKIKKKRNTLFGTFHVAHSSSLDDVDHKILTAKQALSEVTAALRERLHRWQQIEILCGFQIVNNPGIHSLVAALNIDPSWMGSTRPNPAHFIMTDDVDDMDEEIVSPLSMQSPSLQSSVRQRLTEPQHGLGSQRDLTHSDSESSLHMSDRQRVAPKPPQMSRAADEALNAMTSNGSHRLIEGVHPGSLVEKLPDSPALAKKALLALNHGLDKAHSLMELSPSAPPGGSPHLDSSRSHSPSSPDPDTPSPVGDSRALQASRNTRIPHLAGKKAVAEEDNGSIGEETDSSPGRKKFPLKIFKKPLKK
Sequence of Orai2/STIM1 channels (Q96SN7 whole entry): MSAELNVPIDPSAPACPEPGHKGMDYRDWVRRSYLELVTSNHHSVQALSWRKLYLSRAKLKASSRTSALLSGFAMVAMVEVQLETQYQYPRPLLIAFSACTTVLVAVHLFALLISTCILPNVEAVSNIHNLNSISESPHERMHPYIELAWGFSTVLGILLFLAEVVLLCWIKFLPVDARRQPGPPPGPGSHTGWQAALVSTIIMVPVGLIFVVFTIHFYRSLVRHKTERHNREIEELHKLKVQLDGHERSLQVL
Sequence of Orai2/STIM1 channels (Q13586 23-685 partner): as the sequence (Q13586 23-685 partner) above

O=C(Nc1ccn(Cc2ccc(O)cc2C(F)(F)F)n1)c1c(F)cccc1F [GSK-7975A, 2,6-Difluoro-N-(1-(4-hydroxy-2-(trifluoromethyl)benzyl)-1H-pyrazol-3-yl)benzamide, reference compound]
activity at 0.7 µM (Mouse PACs [1]): 50% | total histopathology score [2]: substantially reduces | effect on Amylase release (Mouse Acinar cells): mimicked EGTA | percent necrosis (Human PACs): about 30% | pIC50 (Orai1/STIM1 channels): 6.40 | pIC50 (Orai2/STIM1 channels): 5.84 | Calcium re-uptake, % of the control (Mouse PACs [3]): about 30% | percent necrosis ([4]; TLCS plus 10 μM GSK-7975A, TLCS alone about 45%, no TLCS about 10%): about 23%

Cc1cccc(F)c1C(=O)Nc1cnc(-c2cc3c(cc2Cl)OC(F)(F)O3)cn1 [Compound I, N-(5-(6-chloro-2,2-difluorobenzo[d][1,3]dioxol-5-yl)pyrazin-2-yl)-2-fluoro-6-methylbenzamide]
block of reuptake (Mouse PACs [1]): 100% | activity at 0.7 µM (Mouse PACs [1]): 50% | JUNV virus production (foci) (Candid-1 JUNV): statistically significant, dose-dependent reduction | TLCS-induced Ca2+ entry (Mouse PACs [5]): completely blocked | effect on Amylase release (Mouse Acinar cells): mimicked EGTA | potency on Orai1-type CRAC channels compared to GSK-7975A (Orai1/STIM1 channels; Compound I versus GSK-7975A): about 4 fold | pIC50 (Orai1/STIM1 channels): 6.92 | Compound I levels in the pancreas [6]: dose-proportional increase | reduction in caerulein-induced pathology in the pancreas ([7]; prophylactic: i.p. 30 min before the 1st caerulein injection): 26% | reduction in caerulein-induced pathology in the pancreas ([7]; therapeutic: i.p. after the 3rd caerulein injection): 35% | pIC50 (Orai2/STIM1 channels): 6.05 | reuptake of Calcium (Mouse PACs [8]): do not demonstrate reuptake of Calcium | Store-operated Ca2+ entry (SOCE) (murine T cells): blocks SOCE stronger in differentiated Th17 cells | caerulein-induced pathology in the mouse pancreas [9]: significant and dose-dependent reductions | release of multiple cytokines [10]: potently inhibits | caerulein-induced serum amylase activity [11]: significant and dose-dependent reductions | caerulein-induced serum lipase activity [11]: significant and dose-dependent reductions | Calcium re-uptake, % of the control (Mouse PACs [3]): ~0% | IL-17A production by Th17 cells (Th17 cells): more severely affected | TLCS-induced necrosis (% PI uptake) ([4]; 500 μM TLCS plus 1 μM Compound I): inhibits

Cc1nc2cc(C)c(-c3cnc(NC(=O)c4c(F)ccc(F)c4F)s3)cc2o1 [Compound II, N-(5-(2,5-dimethylbenzo[d]oxazol-6-yl)thiazol-2-yl)-2,3,6-trifluorobenzamide]
effect on Amylase release (Mouse Acinar cells): mimicked EGTA
